Assay results as given in ChEMBL document CHEMBL3132766, “Flavans from Desmos cochinchinensis as potent aromatase inhibitors” (Medchemcomm, 2013).

What was measured:
[1] = Cytotoxicity against human HuCCa1 cells by MTT assay; type: functional, cell-based, HuCC-A1
A549 = test: Cytotoxicity against human A549 cells by MTT assay; type: functional, cell-based
HepG2 = test: Cytotoxicity against human HepG2 cells by MTT assay; type: functional, cell-based
[2] = Cytotoxicity against human MOLT3 cells by XTT assay; type: functional, cell-based; settings: MOLT-3
Aromatase [3] = target: T1, Aromatase (Homo sapiens, UniProt P11511); test: Inhibition of human recombinant aromatase expressed in baculovirus infected insect cells using O-benzylfluorescein benzyl ester as substrate after 30 mins
T1 sequence (P11511 whole entry): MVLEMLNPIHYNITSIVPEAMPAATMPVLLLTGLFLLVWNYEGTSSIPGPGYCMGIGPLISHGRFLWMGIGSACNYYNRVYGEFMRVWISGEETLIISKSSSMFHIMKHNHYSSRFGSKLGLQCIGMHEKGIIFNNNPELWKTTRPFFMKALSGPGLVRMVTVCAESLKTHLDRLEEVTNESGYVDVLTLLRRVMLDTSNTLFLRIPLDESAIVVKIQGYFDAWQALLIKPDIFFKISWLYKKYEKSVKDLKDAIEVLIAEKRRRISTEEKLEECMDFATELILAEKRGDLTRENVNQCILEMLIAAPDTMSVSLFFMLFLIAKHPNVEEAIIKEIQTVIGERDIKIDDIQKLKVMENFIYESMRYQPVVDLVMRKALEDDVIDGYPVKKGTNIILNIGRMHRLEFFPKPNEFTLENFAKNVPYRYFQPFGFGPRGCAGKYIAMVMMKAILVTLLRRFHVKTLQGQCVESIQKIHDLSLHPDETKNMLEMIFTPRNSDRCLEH

Aromatase [4] = target: T1, Aromatase; test: Inhibition of aromatase (unknown origin)
[5] = Homo sapiens, HuCC-A1, read-out: IC50
[6] = Homo sapiens, HepG2, read-out: IC50
[7] = Homo sapiens, A549, read-out: IC50

| Compound | IC50 [1, 5] [µM] | IC50 (A549; a549) | IC50 (HepG2; hepg2) | IC50 [2] [µM] | IC50 (Aromatase [3]) [µM] | IC50 (HepG2; [6]) [µM] | IC50 ([1]; hucc-a1) | IC50 (A549; [7]) [µM] | IC50 (Aromatase [4]) [µM] |
| --- | --- | --- | --- | --- | --- | --- | --- | --- | --- |
| COc1cc(O)c(C=O)c2c1[C@H](OC)C[C@@H](c1ccccc1)O2 | 140 | Not Active | Not Active | 41.3 | 0.09 | – | – | – | – |
| COc1cc([C@@H]2c3cc4c(cc3[C@@H](O[C@@H]3O[C@@H]5CO[C@@H](C)O[C@H]5[C@H](O)[C@H]3O)[C@H]3COC(=O)[C@H]23)OCO4)cc(OC)c1O [ETOPOSIDE] | – | – | – | 0.03 | – | 22.1 | – | – | – |
| COc1c(C)c(OC)c2c(c1C=O)O[C@H](c1ccccc1)C[C@H]2O | – | – | – | 57.4 | 1.01 | 99.6 | Not Active | 137 | – |
| COc1cccc2c1C(=O)c1c(O)c3c(c(O)c1C2=O)C[C@@](O)(C(=O)CO)C[C@@H]3O[C@H]1C[C@H](N)[C@H](O)[C@H](C)O1 [DOXORUBICIN] | 1.1 | – | – | – | – | – | – | – | – |
| COc1c(C)c(O)c(C=O)c2c1[C@H](OC)C[C@@H](c1ccccc1)O2 | 125 | – | – | 28.5 | 0.15 | 145 | – | 104 | – |
| COc1c(C)c(O)c2c(c1C)O[C@H](c1ccccc1)CC2=O | – | Not Active | Not Active | 72 | > 12.5 | – | Not Active | – | – |
| COc1cc(O)c2c(c1C)O[C@H](c1ccccc1)CC2=O | – | – | – | – | 0.6 | – | – | – | – |
| COc1c(C)c(OC)c2c(c1C)O[C@H](c1ccccc1)C[C@H]2O | – | Not Active | – | 63.5 | 10.7 | 135 | Not Active | – | – |
| COc1cc(O)c([C@@H]2C[C@@H](c3ccccc3)Oc3c(C=O)c(O)cc(O)c32)c(O)c1C(=O)/C=C/c1ccccc1 | – | – | – | – | – | – | – | – | 3.3 |
| O=C1C[C@@H](c2ccccc2)Oc2cc(O)cc(O)c21 [PINOCEMBRIN] | – | – | – | – | – | – | – | – | 0.9 |
| COc1cc(O)c([C@H]2C[C@@H](c3ccccc3)Oc3c(C=O)c(O)cc(O)c32)c(O)c1C(=O)/C=C/c1ccccc1 | – | – | – | – | – | – | – | – | 1.8 |
| COc1cc(O)c(C=O)c2c1[C@H](O)C[C@@H](c1ccccc1)O2 | 130 | – | Not Active | 24.3 | 0.04 | – | – | 147 | – |
| COc1c(C)c(O)c(C=O)c2c1[C@H](O)C[C@@H](c1ccccc1)O2 | 143 | Not Active | – | 29.8 | 0.08 | 143 | – | – | – |
